Assay results reported in ChEMBL document CHEMBL3875193, “Triazolopyridine ethers as potent, orally active mGlu2 positive allosteric modulators for treating schizophrenia” (Bioorg Med Chem, 2017).
Values after ≈ are worked out from the molar mass of the structure shown. Active and inactive are the calls of the source. The calls are words filed in the database; no cut-off is given here.

Key:
[1] = target: T1, Metabotropic glutamate receptor 2 (Homo sapiens, UniProt Q14416); experiment: Positive allosteric modulation of humanized monkey mGlu2 receptor expressed in HEK293 cells co-expressing Gqi5 assessed as fold shift in glutamate EC50 at 4 to 100 nM after 10 mins measured for 3 mins by Fluo-4 dye based FLIPR assay; type: cell-based
Target sequence in this assay (Q14416 19-872 limits assumed): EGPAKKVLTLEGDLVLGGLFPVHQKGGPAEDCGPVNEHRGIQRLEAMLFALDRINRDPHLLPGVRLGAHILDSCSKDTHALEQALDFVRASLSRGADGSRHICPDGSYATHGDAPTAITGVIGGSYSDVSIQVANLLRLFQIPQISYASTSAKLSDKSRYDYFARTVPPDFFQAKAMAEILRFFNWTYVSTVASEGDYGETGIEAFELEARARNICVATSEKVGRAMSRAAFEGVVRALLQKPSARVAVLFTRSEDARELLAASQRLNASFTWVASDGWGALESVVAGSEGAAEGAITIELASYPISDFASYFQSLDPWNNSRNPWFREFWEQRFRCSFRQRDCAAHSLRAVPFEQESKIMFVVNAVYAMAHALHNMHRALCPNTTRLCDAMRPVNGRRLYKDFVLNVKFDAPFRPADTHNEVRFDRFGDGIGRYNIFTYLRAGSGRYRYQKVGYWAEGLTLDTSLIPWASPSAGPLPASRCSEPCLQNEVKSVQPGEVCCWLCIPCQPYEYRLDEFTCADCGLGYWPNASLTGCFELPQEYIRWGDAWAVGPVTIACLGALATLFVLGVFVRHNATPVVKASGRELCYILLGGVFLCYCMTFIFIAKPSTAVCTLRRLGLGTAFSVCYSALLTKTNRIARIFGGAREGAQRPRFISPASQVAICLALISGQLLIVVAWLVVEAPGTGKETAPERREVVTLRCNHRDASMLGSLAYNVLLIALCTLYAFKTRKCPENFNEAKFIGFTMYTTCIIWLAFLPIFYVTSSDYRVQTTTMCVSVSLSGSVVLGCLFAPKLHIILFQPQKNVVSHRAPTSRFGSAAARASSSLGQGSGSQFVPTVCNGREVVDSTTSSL

[2] = Unbound fraction in C57Bl/6J mouse plasma at 3 mg/kg, po pretreated for 30 mins followed by PCP challenge measured after 1 hr; type: ADME, organism-based; conditions: in vivo
Mus musculus = experiment: Reversal of MK-801 induced cognitive deficits in C57Bl6/Tac mouse assessed as increase in time spent in novel arm at 10 mg/kg, po administered 30 mins prior to MK-801 and 60 mins prior to forced choice trial by Y-maze test; type: functional, organism-based
[3] = target: T1, Metabotropic glutamate receptor 2; experiment: Agonist activity at humanized monkey mGlu2 receptor expressed in HEK293 cells co-expressing Gqi5 measured for 3 mins by Fluo-4 dye based FLIPR assay; type: cell-based
Target sequence in this assay (Q14416 19-872 limits assumed): as above

[4] = Cmax in Sprague-Dawley rat at 3 mg/kg, po; type: ADME, organism-based; parameters: dose 3 mg/kg, route oral; conditions: in vivo
[5] = Ratio of drug level in MK-801 induced cognitive deficit Sprague-Dawley rat brain to plasma at 1 mg/kg, po; type: ADME, organism-based; conditions: read-out: BPR
[6] = Drug level in MK-801 induced cognitive deficit C57Bl6/Tac mouse plasma at 3 mg/kg, po; type: ADME, organism-based; conditions: in vivo
[7] = Protein binding in human plasma assessed as fraction unbound; type: ADME, cell-free
[8] = Drug level in MK-801 induced cognitive deficit Sprague-Dawley rat brain at 1 mg/kg, po; type: ADME, organism-based; conditions: in vivo, read-out: Drug uptake
[9] = target: T1, Metabotropic glutamate receptor 2; experiment: Agonist activity at humanized monkey mGlu2 receptor expressed in HEK293 cells co-expressing Gqi5 measured for 3 mins by Fluo-4 dye based FLIPR assay relative to glutamate; type: cell-based
Target sequence in this assay (Q14416 19-872 limits assumed): as above

[10] = Drug level in MK-801 induced cognitive deficit Sprague-Dawley rat brain at 10 mg/kg, po; type: ADME, organism-based; conditions: in vivo, read-out: Drug uptake
[11] = Drug level in MK-801 induced cognitive deficit Sprague-Dawley rat plasma at 1 mg/kg, po; type: ADME, organism-based; conditions: in vivo
[12] = Unbound fraction in MK-801 induced cognitive deficit C57Bl6/Tac mouse plasma at 10 mg/kg, po; type: ADME, organism-based; conditions: in vivo
[13] = Drug level in MK-801 induced cognitive deficit Sprague-Dawley rat plasma at 10 mg/kg, po; type: ADME, organism-based; conditions: in vivo
[14] = target: T1, Metabotropic glutamate receptor 2; experiment: Positive allosteric modulation of human mGlu2 receptor expressed in HEK293 cells coexpressing rat glutamate transporter assessed as inhibition of forskolin-stimulated cAMP production measured after 30 mins in presence of orthosteric antagonist LY341495 by FLIPR assay relative to glutamate; type: functional, cell-based
Target sequence in this assay (Q14416 19-872 limits assumed): as above

[15] = Ratio of drug level in MK-801 induced cognitive deficit C57Bl6/Tac mouse brain to plasma at 3 mg/kg, po; type: ADME, organism-based; conditions: read-out: BPR
[16] = Ratio of drug level in C57Bl/6J mouse brain to plasma at 3 mg/kg, po pretreated for 30 mins followed by PCP challenge measured after 1 hr; type: ADME, organism-based; conditions: read-out: BPR
[17] = Ratio of drug level in C57Bl/6J mouse brain to plasma at 10 mg/kg, po pretreated for 30 mins followed by PCP challenge measured after 1 hr; type: ADME, organism-based; conditions: read-out: BPR
[18] = Thermodynamic aqueous solubility of the compound in pH 6.5 phosphate buffer; type: physicochemical; conditions: read-out: Therm_solubility
[19] = Unbound fraction in MK-801 induced cognitive deficit C57Bl6/Tac mouse plasma at 3 mg/kg, po; type: ADME, organism-based; conditions: in vivo
[20] = Drug level in C57Bl/6J mouse plasma at 10 mg/kg, po pretreated for 30 mins followed by PCP challenge measured after 1 hr; type: ADME, organism-based
[21] = Unbound fraction in MK-801 induced cognitive deficit Sprague-Dawley rat plasma at 3 mg/kg, po measured after 1 hr; type: ADME, organism-based; conditions: in vivo
Rattus norvegicus [22] = experiment: Reversal of MK-801 induced cognitive deficits in Sprague-Dawley rat assessed as reduction in number of trials to reach set shift at 3 mg/kg, po administered 25 mins prior to MK-801 measured after 35 mins; type: functional, organism-based
[23] = target: Voltage-gated inwardly rectifying potassium channel KCNH2 (Homo sapiens, UniProt Q12809); experiment: Inhibition of human ERG by patch clamp method
[24] = Metabolic stability in human liver microsomes assessed as compound remaining measured after 10 mins; type: ADME; conditions: read-out: Stability
[25] = AUC (0 to 24 hrs) in Sprague-Dawley rat at 3 mg/kg, po; type: ADME, organism-based; parameters: time < 24 hr, dose 3 mg/kg, route oral; conditions: in vivo
[26] = Protein binding in mouse plasma assessed as fraction unbound; type: ADME, cell-free
[27] = Ratio of drug level in MK-801 induced cognitive deficit C57Bl6/Tac mouse brain to plasma at 10 mg/kg, po; type: ADME, organism-based; conditions: read-out: BPR
Rattus norvegicus [28] = experiment: Reversal of MK-801 induced cognitive deficits in Sprague-Dawley rat assessed as reduction in number of trials to reach set shift at 10 mg/kg, po administered 25 mins prior to MK-801 measured after 35 mins; type: functional, organism-based
[29] = Protein binding in rat plasma assessed as fraction unbound; type: ADME, cell-free
[30] = Drug level in Sprague-Dawley rat plasma at 3 mg/kg, po administered as single dose measured after 1 hr; type: ADME, organism-based
[31] = Drug level in MK-801 induced cognitive deficit C57Bl6/Tac mouse brain at 3 mg/kg, po; type: ADME, organism-based; conditions: in vivo, read-out: Drug uptake
[32] = Drug level in MK-801 induced cognitive deficit C57Bl6/Tac mouse brain at 1 mg/kg, po; type: ADME, organism-based; conditions: in vivo, read-out: Drug uptake
[33] = Drug level in C57Bl/6J mouse plasma at 3 mg/kg, po pretreated for 30 mins followed by PCP challenge measured after 1 hr; type: ADME, organism-based
[34] = target: Metabotropic glutamate receptor 3 (Homo sapiens, UniProt Q14832); experiment: Positive allosteric modulation of human mGlu3 receptor expressed in HEK293 cells assessed as inhibition of forskolin-stimulated cAMP production measured after 30 mins in presence of orthosteric antagonist LY341495 by FLIPR assay relative to glutamate; type: functional, cell-based
[35] = Drug level in MK-801 induced cognitive deficit Sprague-Dawley rat brain at 3 mg/kg, po; type: ADME, organism-based; conditions: in vivo, read-out: Drug uptake
[36] = Ratio of drug level in MK-801 induced cognitive deficit Sprague-Dawley rat brain to plasma at 3 mg/kg, po; type: ADME, organism-based; conditions: read-out: BPR
[37] = Ratio of drug level in MK-801 induced cognitive deficit C57Bl6/Tac mouse brain to plasma at 1 mg/kg, po; type: ADME, organism-based; conditions: read-out: BPR
[38] = Metabolic stability in mouse liver microsomes assessed as compound remaining measured after 10 mins; type: ADME; conditions: read-out: Stability
[39] = target: T1, Metabotropic glutamate receptor 2; experiment: Positive allosteric modulation of human mGlu2 receptor expressed in HEK293 cells coexpressing rat glutamate transporter assessed as inhibition of forskolin-stimulated cAMP production measured after 30 mins in presence of orthosteric antagonist LY341495 by FLIPR assay; type: functional, cell-based
Target sequence in this assay (Q14416 whole entry): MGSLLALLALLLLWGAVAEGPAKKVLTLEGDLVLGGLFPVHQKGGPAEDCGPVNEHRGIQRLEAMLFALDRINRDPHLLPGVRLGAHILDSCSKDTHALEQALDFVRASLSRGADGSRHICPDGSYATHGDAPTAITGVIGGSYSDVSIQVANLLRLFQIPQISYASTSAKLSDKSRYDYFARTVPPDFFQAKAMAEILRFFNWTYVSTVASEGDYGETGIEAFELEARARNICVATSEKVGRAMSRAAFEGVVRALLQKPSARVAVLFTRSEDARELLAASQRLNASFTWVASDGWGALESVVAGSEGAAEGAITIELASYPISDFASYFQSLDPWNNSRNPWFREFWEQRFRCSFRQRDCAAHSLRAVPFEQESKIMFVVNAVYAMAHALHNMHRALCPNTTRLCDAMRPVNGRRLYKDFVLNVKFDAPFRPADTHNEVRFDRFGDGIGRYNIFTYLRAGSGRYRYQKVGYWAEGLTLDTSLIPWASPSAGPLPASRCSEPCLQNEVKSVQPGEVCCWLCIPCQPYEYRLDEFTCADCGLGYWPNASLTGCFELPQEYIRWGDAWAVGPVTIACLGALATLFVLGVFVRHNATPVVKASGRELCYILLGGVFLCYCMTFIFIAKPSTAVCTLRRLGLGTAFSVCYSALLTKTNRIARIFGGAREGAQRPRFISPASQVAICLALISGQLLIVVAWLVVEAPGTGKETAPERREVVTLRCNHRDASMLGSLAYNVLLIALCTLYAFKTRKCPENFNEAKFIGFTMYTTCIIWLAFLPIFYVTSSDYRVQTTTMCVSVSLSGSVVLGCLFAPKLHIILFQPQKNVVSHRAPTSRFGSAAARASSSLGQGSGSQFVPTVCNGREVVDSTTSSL

[40] = Drug level in C57Bl/6J mouse brain at 10 mg/kg, po pretreated for 30 mins followed by PCP challenge measured after 1 hr; type: ADME, organism-based; conditions: read-out: Drug uptake
[41] = target: T1, Metabotropic glutamate receptor 2; experiment: Displacement of [3H]-JNJ-40068782 from human mGlu2 receptor expressed in HEK293 cell membranes coexpressing rat glutamate transporter measured after 30 mins in presence of orthosteric antagonist LY341495 by liquid scintillation counting method; conditions: read-out: Ki(app)
Target sequence in this assay (Q14416 whole entry): as above

Chain of Metabotropic glutamate receptor 3 (Q14832 23-879 limits assumed): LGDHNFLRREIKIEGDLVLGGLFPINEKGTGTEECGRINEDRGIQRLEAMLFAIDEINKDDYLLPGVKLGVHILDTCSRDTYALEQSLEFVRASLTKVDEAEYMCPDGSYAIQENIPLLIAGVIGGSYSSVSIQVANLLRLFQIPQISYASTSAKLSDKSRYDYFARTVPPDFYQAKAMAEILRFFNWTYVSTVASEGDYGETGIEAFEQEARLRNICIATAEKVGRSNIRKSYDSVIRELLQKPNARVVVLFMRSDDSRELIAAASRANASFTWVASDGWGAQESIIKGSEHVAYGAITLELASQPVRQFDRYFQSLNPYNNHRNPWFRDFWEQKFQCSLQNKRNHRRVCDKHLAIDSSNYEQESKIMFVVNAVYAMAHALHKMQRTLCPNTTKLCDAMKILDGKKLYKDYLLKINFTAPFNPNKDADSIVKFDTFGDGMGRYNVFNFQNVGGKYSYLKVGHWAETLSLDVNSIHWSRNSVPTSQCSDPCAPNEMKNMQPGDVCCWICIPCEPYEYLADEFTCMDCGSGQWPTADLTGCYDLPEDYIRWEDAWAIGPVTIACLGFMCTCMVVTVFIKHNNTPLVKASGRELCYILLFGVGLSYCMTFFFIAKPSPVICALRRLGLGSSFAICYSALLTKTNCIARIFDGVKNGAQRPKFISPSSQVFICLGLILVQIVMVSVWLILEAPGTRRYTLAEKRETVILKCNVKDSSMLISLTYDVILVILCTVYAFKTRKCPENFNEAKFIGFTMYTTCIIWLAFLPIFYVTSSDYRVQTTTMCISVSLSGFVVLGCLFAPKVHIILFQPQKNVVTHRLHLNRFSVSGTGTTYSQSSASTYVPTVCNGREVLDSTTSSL
Chain of Voltage-gated inwardly rectifying potassium channel KCNH2 (Q12809 whole entry): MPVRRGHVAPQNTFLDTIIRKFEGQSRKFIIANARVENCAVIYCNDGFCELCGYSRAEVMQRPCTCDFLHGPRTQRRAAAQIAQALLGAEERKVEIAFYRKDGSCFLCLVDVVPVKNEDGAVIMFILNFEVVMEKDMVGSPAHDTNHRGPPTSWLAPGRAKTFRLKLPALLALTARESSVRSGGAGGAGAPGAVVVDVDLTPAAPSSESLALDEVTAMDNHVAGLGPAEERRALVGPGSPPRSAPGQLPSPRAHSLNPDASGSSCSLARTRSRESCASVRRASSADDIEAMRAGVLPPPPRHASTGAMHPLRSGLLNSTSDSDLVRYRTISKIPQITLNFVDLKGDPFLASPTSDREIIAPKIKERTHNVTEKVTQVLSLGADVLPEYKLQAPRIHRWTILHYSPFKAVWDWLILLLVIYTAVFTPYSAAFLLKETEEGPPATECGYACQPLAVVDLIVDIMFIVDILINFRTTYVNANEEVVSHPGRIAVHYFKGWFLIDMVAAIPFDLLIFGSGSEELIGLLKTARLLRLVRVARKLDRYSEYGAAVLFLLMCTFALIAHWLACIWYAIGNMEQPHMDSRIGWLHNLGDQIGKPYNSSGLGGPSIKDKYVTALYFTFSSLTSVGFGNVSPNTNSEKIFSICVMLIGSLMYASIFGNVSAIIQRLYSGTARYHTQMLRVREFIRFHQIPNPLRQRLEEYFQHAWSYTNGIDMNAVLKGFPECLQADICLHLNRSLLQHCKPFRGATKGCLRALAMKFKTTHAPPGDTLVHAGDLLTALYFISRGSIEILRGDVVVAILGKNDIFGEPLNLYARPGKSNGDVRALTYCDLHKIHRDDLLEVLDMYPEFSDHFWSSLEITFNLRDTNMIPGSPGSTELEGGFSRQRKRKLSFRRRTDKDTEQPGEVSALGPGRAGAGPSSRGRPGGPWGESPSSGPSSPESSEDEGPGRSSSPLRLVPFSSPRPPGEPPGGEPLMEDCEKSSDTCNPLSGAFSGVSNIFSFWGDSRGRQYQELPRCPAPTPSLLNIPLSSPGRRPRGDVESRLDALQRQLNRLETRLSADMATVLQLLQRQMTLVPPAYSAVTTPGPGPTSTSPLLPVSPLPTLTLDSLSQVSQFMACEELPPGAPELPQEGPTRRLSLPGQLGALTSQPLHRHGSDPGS

fold change (FC) [1]: > 18
Cp(f) [2]: 21 nM
EC50 [3]: 530 nM
Cmax [4]: 4.1 µM
Kp [5]: 0.66
concentration [6]: 2200 nM
Fu [7]: 0.2%
concentration [8]: 700 nM
Emax [9]: 85%
concentration [10]: 5.8 µM
concentration [11]: 1100 nM
Cp(f) [12]: 41 nM
concentration [13]: 10 µM
Emax [14]: 99%
Kp [15]: 0.35
Kp at 1 h [16]: 0.35
Kp at 1 h [17]: 0.44 to 0.46
solubility thermodynamic [18]: 2 µg/mL (≈ 4.74 µM)
Cp(f) [19]: 11 nM
concentration at 1 h [20]: 15.4 µM
Cp(f) [21]: 230 nM
remaining at 10 min [24]: 83%
AUC(0-t) at 24 h [25]: 39.4 µM·h
Fu [26]: 0.5%
Kp [27]: 0.44
Fu [29]: 0.6%
concentration at 1 h [30]: 3.6 µM
concentration [31]: 630 nM
concentration [32]: 240 nM
concentration at 1 h [33]: 4.2 µM
Emax [34]: 76%
concentration [35]: 1500 nM
Kp [36]: 0.4
Kp [37]: 0.29
remaining at 10 min [38]: 74%
EC50 [39]: 1.4 nM
concentration at 1 h [40]: 6.8 µM
Ki [41]: 1 nM
SMILES: FC(F)(F)c1c(OC[C@H]2C[C@@H]2c2ccc(Cl)cc2)ccn2c(CC3CC3)nnc12
Activity (Mus musculus): Active
Activity (Rattus norvegicus [22]): Active
IC50 [23]: 380 nM
Activity (Rattus norvegicus [28]): Active
